Target: viral helicase (Hepatitis C virus (isolate H77), UniProt P27958)
Experiment: Assay for Helicase Inhibition
Type: biochemical, HCV
Conditions: average of three test results; read-out: IC50 (concentration required to achieve a 50% inhibition of helicase activity)
Protocol: Anti-viral activity was measured on the basis of inhibition of helicase activity. The biological studies of the anti-viral activity of the compounds of the invention are described below.
Example 6 illustrates the efficacy of compounds of the invention in inhibiting the viral helicase activity.
Assay for Helicase Inhibition
The helicase inhibition assay was performed according to methodology of the type described, for example, in: Lain et al., Nucleic Acids Res. 18:7003-7006 (1991); Warrener et al., J. Virol. 69:1720-1726 (1995); Kim et al., Biochem. Biophys. Res. Comm. 214:160-166 (1995). The value given in Table 1 represent the average of three test results in which the concentrations of anti-viral compound required to achieve a 50% inhibition of helicase activity (IC50) were measured.

Sequence of viral helicase (P27958 1027-1657): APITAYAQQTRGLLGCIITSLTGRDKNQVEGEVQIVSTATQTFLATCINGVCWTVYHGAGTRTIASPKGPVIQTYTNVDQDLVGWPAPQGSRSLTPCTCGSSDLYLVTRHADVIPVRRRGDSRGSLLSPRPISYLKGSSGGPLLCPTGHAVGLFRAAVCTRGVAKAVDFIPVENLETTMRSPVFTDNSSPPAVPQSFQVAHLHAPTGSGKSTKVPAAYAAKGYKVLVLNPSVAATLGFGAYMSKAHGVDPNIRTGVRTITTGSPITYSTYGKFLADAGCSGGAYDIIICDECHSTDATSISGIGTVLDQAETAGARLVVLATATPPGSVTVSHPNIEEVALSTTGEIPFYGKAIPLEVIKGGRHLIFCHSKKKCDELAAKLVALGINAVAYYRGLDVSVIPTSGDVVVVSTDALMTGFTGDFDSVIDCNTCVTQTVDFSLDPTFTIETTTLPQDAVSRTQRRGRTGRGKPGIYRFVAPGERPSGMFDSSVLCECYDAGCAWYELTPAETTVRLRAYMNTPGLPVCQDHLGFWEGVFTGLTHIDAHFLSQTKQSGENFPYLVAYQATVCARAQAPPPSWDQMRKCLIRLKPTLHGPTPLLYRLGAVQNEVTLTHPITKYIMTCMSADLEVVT

## c1cc(CN2CCC(C3=N[C@@H]4CCCC[C@H]4N3)CC2)ccc1CN1CCC(C2=N[C@@H]3CCCC[C@H]3N2)CC1 (relative stereo) [Example 3, 1,1'-[1,4-phenylenebis (methylene)]bis(4,4'-trans-(4,5,6,7,8,9-hexahydro)benzimidazoyl)piperidine]
  IC50: 7 µM
